In the supplement of paper PMC6331611:
Values after ≈ are worked out from the molar mass of the structure shown. Where a name gives a salt, the structure may show the parent alone.

Columns and labels:
[1] = tested on: Salmonella enterica serovar Typhimurium SL1344
[2] = tested on: Salmonella enterica serovar Typhimurium SL1344; test: intracellular MIC (10-fold luminescence reduction); higher = less potent; settings: RAW264.7 macrophages
RAW264.7 = test: cytotoxicity (LDH release relative to maximum lysis); higher = more toxic; settings: 50 µM; 2 h

Row | SMILES | MIC ([1]; LPM pH 5.8) | MIC ([1]; MHB) | MIC ([1]; MOPS glucose minimal medium) | intracellular MIC [2] | cytotoxicity (RAW264.7)
1 | C[C@H]1[C@H](NC(=O)/C(=N\OC(C)(C)C(=O)O)c2csc(N)n2)C(=O)N1S(=O)(=O)O [AZTREONAM] | ≤ 0.78 µM | ≤ 0.78 µM | ≤ 0.78 µM | 1.56 µM | 6.82%
2 | CN(C)[C@@H]1C(O)=C(C(N)=O)C(=O)[C@@]2(O)C(O)=C3C(=O)c4c(O)ccc(Cl)c4[C@@H](O)[C@H]3C[C@@H]12 [DEMECLOCYCLINE HYDROCHLORIDE] | ≤ 0.78 µM | 6.25 µM | 1.56 µM | ≤ 0.78 µM | 8.71%
3 | CO/N=C1\CN(c2nc3c(cc2F)c(=O)c(C(=O)O)cn3C2CC2)CC1CN (stereo not given) [GEMIFLOXACIN MESYLATE] | ≤ 0.78 µM | ≤ 0.78 µM | ≤ 0.78 µM | 1.56 µM | 5.86%
4 | CC1CCc2c(N3CCC(O)CC3)c(F)cc3c(=O)c(C(=O)O)cn1c23 (stereo not given) [NADIFLOXACIN] | ≤ 0.78 µM | 3.13 µM (≈ 1.13 µg/mL) | 1.56 µM (≈ 0.562 µg/mL) | 1.56 µM | 12.7%
5 | O=C(O)CN(CCN(CC(=O)O)CC(=O)O)CCN(CC(=O)O)CC(=O)O [PENTETIC ACID] | ≤ 0.78 µM | > 50 µM | > 50 µM | 1.56 µM | 7.12%
6 | C=CC1=C(C(=O)O)N2C(=O)[C@@H](NC(=O)/C(=N\O)c3csc(N)n3)[C@H]2SC1 [CEFDINIR] | ≤ 0.78 µM | ≤ 0.78 µM | ≤ 0.78 µM | > 50 µM | 19.4%
7 | Cc1cc(C2CCCCC2)n(O)c(=O)c1 [CICLOPIROX OLAMINE] | ≤ 0.78 µM | > 50 µM | > 50 µM | > 50 µM | 15.5%
8 | CC[C@H]1OC(=O)[C@H](C)[C@@H](O[C@H]2C[C@@](C)(OC)[C@@H](O)[C@H](C)O2)[C@H](C)[C@@H](O[C@@H]2O[C@H](C)C[C@H](N(C)C)[C@H]2O)[C@](C)(O)C[C@@H](C)CN(C)[C@H](C)[C@@H](O)[C@]1(C)O [AZITHROMYCIN] | ≤ 0.78 µM | ≤ 0.78 µM | ≤ 0.78 µM | ≤ 0.78 µM | 21.1%
9 | COC(=O)C1=C(C)NC(C)=C(C(=O)OCC(C)C)C1c1ccccc1[N+](=O)[O-] (stereo not given) [NISOLDIPINE] | 12.5 µM (≈ 4.86 µg/mL) | > 50 µM | > 50 µM | > 50 µM | 20.8%
10 | Oc1c(Cl)cc(Cl)c2cccnc12 [CHLOROXINE] | ≤ 0.78 µM | 25 µM (≈ 5.35 µg/mL) | 25 µM (≈ 5.35 µg/mL) | > 50 µM | 20.5%
11 | CO[C@@]1(NC(=O)C2SC(=C(C(N)=O)C(=O)O)S2)C(=O)N2C(C(=O)O)=C(CSc3nnnn3C)CS[C@@H]21 (stereo not given in full) [CEFOTETAN] | ≤ 0.78 µM | ≤ 0.78 µM | ≤ 0.78 µM | 1.56 µM | 7.79%
12 | CNCCCC12CCC(c3ccccc31)c1ccccc12 [MAPROTILINE HYDROCHLORIDE] | > 50 µM | > 50 µM | > 50 µM | 3.13 µM | 34%
13 | COc1ccc(Cc2cnc(N)nc2N)cc1OC [DIAVERIDINE] | 50 µM (≈ 13 µg/mL) | 1.56 µM (≈ 0.406 µg/mL) | 6.25 µM (≈ 1.63 µg/mL) | 1.56 µM | 6.9%
14 | CN1CCN(c2cc3c(cc2F)c(=O)c(C(=O)O)cn3-c2ccc(F)cc2)CC1 [DIFLOXACIN HYDROCHLORIDE] | ≤ 0.78 µM | ≤ 0.78 µM | ≤ 0.78 µM | 1.56 µM | 6.88%
15 | CC[C@H]1OC(=O)[C@H](C)[C@@H](O[C@H]2C[C@@](C)(OC)[C@@H](O)[C@H](C)O2)[C@H](C)[C@@H](O[C@@H]2O[C@H](C)C[C@H](N(C)C)[C@H]2O)[C@](C)(O)C[C@@H](C)C(=O)[C@H](C)[C@@H](O)[C@]1(C)O [ERYTHROMYCIN] | > 50 µM | > 50 µM | > 50 µM | 1.56 µM | 6.32%
16 | C=C1c2c(Cl)ccc(O)c2C(=O)C2=C(O)[C@]3(O)C(=O)C(C(N)=O)=C(O)[C@@H](N(C)C)[C@@H]3[C@@H](O)[C@H]12.O=C(O)c1cc(S(=O)(=O)O)ccc1O [MECLOCYCLINE SULFOSALICYLATE] | ≤ 0.78 µM | ≤ 0.78 µM | ≤ 0.78 µM | 3.13 µM | 16.3%
17 | O=S(=O)(O)NC1CCCCC1 [CYCLAMIC ACID] | > 50 µM | > 50 µM | > 50 µM | > 50 µM | 7.97%
18 | CO[C@H]1O[C@@H]2O[C@@]3(C)CC[C@H]4[C@H](C)CC[C@@H]([C@H]1C)[C@@]24OO3 [ARTEMETHER] | 50 µM (≈ 14.9 µg/mL) | > 50 µM | > 50 µM | 12.5 µM | 7.51%
19 | Oc1c(Br)cc(Br)c2cccnc12 [BROXYQUINOLINE] | ≤ 0.78 µM | 50 µM (≈ 15.1 µg/mL) | 50 µM (≈ 15.1 µg/mL) | > 50 µM | 15%

Row | SMILES | MIC ([1]; LPM pH 5.8) | MIC ([1]; MHB) | MIC ([1]; MOPS glucose minimal medium) | intracellular MIC [2] | cytotoxicity (RAW264.7)
20 | COc1ccc(C(=O)c2ccccc2)c(O)c1 [OXYBENZONE] | > 50 µM | > 50 µM | > 50 µM | 1.56 µM | 6.44%
21 | C[C@H]1c2cccc(O)c2C(=O)C2=C(O)[C@]3(O)C(=O)C(C(N)=O)=C(O)[C@@H](N(C)C)[C@@H]3[C@@H](O)[C@@H]21 [DOXYCYCLINE HYDROCHLORIDE] | 1.56 µM | 6.25 µM | 6.25 µM | ≤ 0.78 µM | 8.01%
22 | C/C(=C\C(=O)OCCCCCCCCC(=O)O)C[C@@H]1OC[C@H](C[C@@H]2O[C@H]2[C@@H](C)[C@H](C)O)[C@@H](O)[C@H]1O [MUPIROCIN] | ≤ 0.78 µM | > 50 µM | 25 µM (≈ 12.5 µg/mL) | 25 µM | 15.4%
23 | O=C(O)CCC(=O)OC[C@@H](NC(=O)C(Cl)Cl)[C@H](O)c1ccc([N+](=O)[O-])cc1 [CHLORAMPHENICOL SODIUM SUCCINATE] | 6.25 µM | 25 µM | 12.5 µM | ≤ 0.78 µM | 8.03%
24 | O.O.O=C([O-])CN(CCN(CC(=O)[O-])CC(=O)O)CC(=O)O.[Na+].[Na+] [EDETATE DISODIUM] | > 50 µM | > 50 µM | 50 µM | > 50 µM | 19.1%
25 | C[C@]12CC[C@@H]3c4ccc(OC(=O)c5ccccc5)cc4CC[C@H]3[C@@H]1CC[C@@H]2O [ESTRADIOL BENZOATE] | > 50 µM | > 50 µM | > 50 µM | > 50 µM | 20.3%
26 | CO/N=C(\C(=O)N[C@@H]1C(=O)N2C(C(=O)O)=C(COC(C)=O)CS[C@H]12)c1csc(N)n1 [CEFOTAXIME SODIUM] | ≤ 0.78 µM | ≤ 0.78 µM | ≤ 0.78 µM | ≤ 0.78 µM | 7.17%
27 | CO/N=C(\C(=O)N[C@@H]1C(=O)N2C(C(=O)O)=C(CSc3nc(=O)c(O)nn3C)CS[C@H]12)c1csc(N)n1 [CEFTRIAXONE SODIUM TRIHYDRATE] | ≤ 0.78 µM | ≤ 0.78 µM | ≤ 0.78 µM | > 50 µM | 19.6%
28 | CN(C)[C@@H]1C(O)=C(C(N)=O)C(=O)[C@@]2(O)C(O)=C3C(=O)c4c(O)ccc(Cl)c4[C@@](C)(O)[C@H]3C[C@@H]12 [CHLORTETRACYCLINE HYDROCHLORIDE] | ≤ 0.78 µM | 25 µM | 6.25 µM | ≤ 0.78 µM | 8.37%
29 | CC[C@H]1OC(=O)[C@H](C)C(=O)[C@H](C)[C@@H](O[C@@H]2O[C@H](C)C[C@H](N(C)C)[C@H]2O)[C@](C)(OC)C[C@@H](C)C(=O)[C@H](C)[C@H]2N(CCCCn3cnc(-c4cccnc4)c3)C(=O)O[C@]12C [TELITHROMYCIN] | > 50 µM | 12.5 µM (≈ 10.2 µg/mL) | 12.5 µM (≈ 10.2 µg/mL) | ≤ 0.78 µM | 20.8%
30 | CCCCCN(C)CCC(O)(P(=O)(O)O)P(=O)(O)O [IBANDRONATE SODIUM] | > 50 µM | > 50 µM | > 50 µM | 1.56 µM | 6.92%
31 | CCCCC(=O)O[C@]1(C(=O)CO)[C@@H](C)C[C@H]2[C@@H]3CCC4=CC(=O)C=C[C@]4(C)[C@@]3(F)[C@@H](O)C[C@@]21C [BETAMETHASONE VALERATE] | > 50 µM | > 50 µM | > 50 µM | 12.5 µM | 6.63%
32 | CO[C@H]1/C=C/O[C@@]2(C)Oc3c(C)c(O)c4c(O)c(c5c(nc6cc(C)ccn65)c4c3C2=O)NC(=O)/C(C)=C\C=C\[C@H](C)[C@H](O)[C@@H](C)[C@@H](O)[C@@H](C)[C@H](OC(C)=O)[C@@H]1C [RIFAXIMIN] | 6.25 µM (≈ 4.91 µg/mL) | 12.5 µM (≈ 9.82 µg/mL) | 25 µM (≈ 19.6 µg/mL) | 12.5 µM | 6.48%
33 | CN1C[C@H](CNC(=O)OCc2ccccc2)C[C@@H]2c3cccc4c3c(cn4C)C[C@H]21 [METERGOLINE] | > 50 µM | > 50 µM | > 50 µM | ≤ 0.78 µM | 16.2%
34 | CN(C)CC(c1ccc(O)cc1)C1(O)CCCCC1 (stereo not given) [DESVENLAFAXINE SUCCINATE] | > 50 µM | > 50 µM | > 50 µM | 25 µM | 8.25%
35 | CS(=O)(=O)c1ccc([C@@H](O)[C@@H](CF)NC(=O)C(Cl)Cl)cc1 [FLORFENICOL] | ≤ 0.78 µM | 12.5 µM (≈ 4.48 µg/mL) | 6.25 µM (≈ 2.24 µg/mL) | 6.25 µM | 21.3%
36 | CNC(=O)Oc1ccc2c(c1)[C@]1(C)CCN(C)[C@@H]1N2C [PHYSOSTIGMINE SALICYLATE] | 12.5 µM (≈ 3.44 µg/mL) | > 50 µM | > 50 µM | ≤ 0.78 µM | 7.34%
37 | CN1CCC(=C2c3ccccc3C=Cc3ccccc32)CC1 [CYPROHEPTADINE HYDROCHLORIDE] | > 50 µM | > 50 µM | > 50 µM | > 50 µM | 6.22%
38 | CCOC(=O)Nc1nc2ccccc2[nH]1 [LOBENDAZOLE] | 50 µM (≈ 10.3 µg/mL) | > 50 µM | > 50 µM | > 50 µM | 21.1%
